Assay results from patent publication US20240238228A1, “COMPOSITIONS AND METHODS FOR TREATING ALLERGIES AND INFLAMMATORY CONDITIONS” (UNIVERSITY OF PITTSBURGH-OF THE COMMONWEALTH SYSTEM OF …, priority 2021, published 2024).

Columns and labels:
[1] = tested on: passive cutaneous anaphylaxis (PCA); assay: Passive cutaneous anaphylaxis (PCA) in mice; format: in vivo, mouse
Protocol: Mouse ears were measured with a micrometer then sensitized with IgE in filter-sterilized PBS (Sigma, clone SPE-7, 20 ng/50 μl/ear) or vehicle control. Twenty-four hours later mice were treated with NKA (10 μg/ear, intradermal) or vehicle (PBS) 3 h prior to Ag (DNP-HSA 100 μg, in 200 μl, intravenous in saline) administration. Data are presented as change in ear thickness between baseline and the indicated time. […] Edema was evaluated histologically and as a function of Evans blue dye extravasation. For histological evaluation, mice were euthanized 2 h after PCA induction. Paraformaldehyde (4.0%) fixed ears were processed for hematoxylin and eosin staining. Pathology was blindly evaluated on an Axiostar plus microscope equipped with epifluorescence and a digital camera (AxioCam; Zeiss). For dye extravasation, Ag was delivered in 1.0% Evans blue dye. Ninety min later mice were euthanized, and ears were excised. Dye was extracted in DriSolv (EMD Millipore) and quantified as absorbance at OD 650 nm. Data are shown as OD650/mg of tissue. Cytokine expression in the skin was investigated 24 h after PCA induction. Mice were euthanized, ears excised, and tissue homogenized in T-PER (ThermoFisher) with Protease Inhibitor Cocktail (Sigma). Protein concentrations were quantified using the BCA Protein Assay (Pierce). The protein profile of skin homogenates was characterized with C-Series Mouse Cytokine Antibody Array C1 (RayBiotech). Densitometry values subtracting the median background from individual spot areas were calculated with ImageStudioLite v5.2.5. The densitometry value from each cytokine spot was divided by the mean densitometry of positive control spots to give relative protein expression. Data were from each experiment were normalized as (Relative Expression [Treated]/Relative expression [Vehicle]). In some experiments, ELISAs were performed on skin homogenates. Neutrophil influx was evaluated as a function of myeloperoxidase (MPO) activity. To detect MPO activity, tissue was homogenized with a Next Advance Bullet Homogenizer in 50 mM KPG4 with 50 mM […]. Homogenate was incubated with ODP (Sigma) with 0.005% H2O2 for 30 minutes. Enzymatic reactions were stopped with 1N HCl and absorbance was read at 450 nm.

[2] = tested on: PMCs; assay: IgE+Ag-activated PMCs: cytokine release (ELISA); format: cell-based, murine; design: detectible levels of IL-10 / levels of IL-13: dose or concentration left out as unconfirmed
Protocol: Mast cells were differentiated from murine bone marrow as has been described. In brief, marrow was expunged from the femurs and tibias of female mice. Cultures were maintained in complete MC/9 medium containing recombinant murine IL-3 (25 ng/mL, Peprotech) for 4-6 weeks prior to use. Peritoneal MCs (PMCs) were expanded from peritoneal washes with MC/9 medium supplemented with IL-3 (25 ng/mL) and SCF (Peprotech, 10 ng/mL) for 21 days. Purity of BMMCs and PMCs was confirmed to be greater than 95% (FIG. 8A). To initiate signaling via the FcεRI, MCs were loaded with IgE (1.0 μg/ml, clone SPE-7, Sigma) for a minimum of 1 h then crosslinked with dinitrophenyl-human serum albumin (DNP-HSA, 100 ng/mL or as indicated). NKA (either LifeTein (Summerset, NJ) or Phoenix Pharmaceuticals (Burlingham, CA)) stock solutions were prepared in tissue culture grade water (100 μM) and stored at −20° C. for a maximum of 30 days. Glyburide (Cayman Chemical) was prepared in DMSO then diluted in PBS. Calpain activity was detected from cell-free supernatants using the Calpain-Glo Protease Assay (Promega). Supernatants were incubated with substrate for 10 min prior to luminescent detection. In some experiments, glyburide or vehicle (0.1% DMSO) were added to cells 10 min prior to Ag. ELISA kits from eBioscience (IL-13), BioLegend, (TNF and IL-10) or RayBiotech (NKA) and used in accord with the manufacturer's recommendations.

[3] = tested on: BMMCs; assay: Avidin / LAMP-1 surface staining of activated BMMCs; format: cell-based, murine; design: effect on LAMP-1^+ and avidin^+ BMMCs: dose or concentration left out as unconfirmed
Protocol: (§1) MCs were collected and washed with PBS containing 0.5% BSA and 0.1% sodium azide. Non-specific binding was inhibited using FcBlock (PBS with 2.0% goat serum and 0.25 mg/mL anti-CD16/32 (clone 2.4G2, BD Biosciences). Surface staining was done with anti-CD117 eFluor450 (clone 2B8, ThermoFisher), anti-FcεRI FITC (clone MAR-1, ThermoFisher) and anti-ABCA1 Alexa Fluor 647 (clone 5A1-1422, BioRad). Cells were washed with Wash Buffer (PBS with 0.5% BSA and 0.1% sodium azide). To detect differences in granulated proteins at the cell surface, IgE-loaded MCs were activated with DNP-HSA with or without NKA in Tyrode's Buffer for 30 min, washed with Wash Buffer then stained with Avidin Alexa Fluor488 (Invitrogen, Av488, 0.8 μg/5×10^5 cells) and anti-LAMP-1 PE (clone eBio 1D48, ThermoFisher). Data were acquired on either a LSRII or a Fortessa (BD BioSciences). Analysis was performed with FlowJo v10.4 (BD Biosciences).

[4] = tested on: PMCs; assay: Avidin / LAMP-1 surface staining of activated PMCs; format: cell-based, murine; design: percentage of LAMP-1^+ and avidin^+ PMCs: dose or concentration left out as unconfirmed
Protocol: as §1

[5] = tested on: IL-10; assay: IL-10 degradation assays on BMMC supernatants; format: cell-based, murine
Protocol: To detect early IL-10 release, 4×10^6 cells were incubated in serum free RPMI for a minimum of three hours prior to IgE loading and activation with DNP-HSA (100 ng/mL). Supernatants were collected and IL-10 was detected in accord with manufacturer's recommendations using 1.0% BSA to block and a top standard of 250 pg/mL. The lower limit of detection was 7.8 pg/mL. To evaluate the role of relationship between calpain and IL-10, cell-free supernatants were collected 10 min after activation and incubated with Ac-calpastatin (Ac-Cal; 20 μg/mL, Cayman) or vehicle control. […] To directly test IL-10 proteolysis, MCs were activated for 45 min, cell free supernatants were collected and pulsed with recombinant IL-10 (Biolegend, 250 pg/mL).

[6] = 24 h after PCA induction, NKA pretreatment
[7] = 24 h after PCA induction, NKA pretreatment, listed as Neurokinin A
[8] = NKA 10 μg/ear intradermal 3 h prior to Ag
[9] = control Mcpt5Cre^+×IL10^WT PMCs

In the case of `COc1ccc(Cl)cc1C(=O)NCCc1ccc(S(=O)(=O)NC(=O)NC2CCCCC2)cc1` [glyburide, reference compound], the “ear thickness at 24 h” value ([1]; glyburide 2.5 mg/kg i.p. 3 h prior to PCA induction) is reported as “significantly reduced”, the “levels of TNF” value ([2]; glyburide 50 mM, 20-24 h in culture) is reported as “decreased” and the “detectible levels of IL-10” value ([2]; glyburide, 20-24 h in culture) is reported as “increased”. For the same compound, the “levels of IL-13” value ([2]; glyburide, 20-24 h in culture) was “decreased”, the “effect on LAMP-1^+ and avidin^+ BMMCs” value ([3]; IgE-activated 30 minutes) was “less robust effect” and the “percentage of LAMP-1^+ and avidin^+ PMCs” value ([4]; IgE-activated 30 minutes) was “reduced the percentage”. For the same compound, the IL-10 levels ([5]; increasing concentrations of glyburide 10 min prior to activation, supernatants 30 min after activation) was “increasing”.
In the case of Neurokinin A [NKA], the “IFNγ levels in skin (protein array)” value [1, 6] is reported as “not statistically significant, IFNγ levels increased”, the “IL-3 in IgE-treated skin (protein array)” value [1, 6] is reported as “significantly reduced” and the “IL-6 in IgE-treated skin (protein array)” value [1, 6] is reported as “significantly reduced”. The “IL-13 in IgE-treated skin (protein array)” value [1, 6] was “down-regulated”, the “MCP1 in IgE-treated skin (protein array)” value [1, 6] was “significantly reduced” and the “RANTES in IgE-treated skin (protein array)” value [1, 6] was “significantly reduced”. The “TNF in IgE-treated skin (protein array)” value [1, 6] was “down-regulated”, the “IL-13 in IgE-treated skin (protein array)” value [1, 7] was “significantly reduced” and the “TNF in IgE-treated skin (protein array)” value [1, 7] was “significantly reduced”. The “Evans blue dye extravasation” value ([1]; Mcpt5Cre^+×IL10/l mice) was “no effect”, the “Evans blue dye extravasation” value ([1]; Mcpt5Cre^+×IL10^WT mice) was “inhibited” and the “IL-13 in the skin by ELISA” value ([1]; Mcpt5 Cre^+×IL10^WT mice, 24 h) was “significantly downregulated”. For the same compound, the “TNF in the skin by ELISA” value ([1]; Mcpt5 Cre^+×IL10^WT mice, 24 h) was “significantly downregulated”, the “immune-regulatory capacity (ear measurements) at 2 h and 24 h after PCA induction” value ([1]; Mcpt5Cre^+×IL10^fl/fl mice) was “lost” and the “ear thickness, early (1-2 hours) phase of PCA” value [1, 8] was “reduced ear thickness”. For the same compound, the “ear thickness, late phase of PCA (24 h)” value [1, 8] was “reduced ear thickness”, the “Evans blue dye extravasation” value ([1]; NKA 10 μg/ear intradermal 3 h prior to Ag, 90 min after Ag) was “reduced Evans blue dye extravasation” and the “edema in histological sections, early phase of PCA” value ([1]; NKA 10 μg/ear intradermal 3 h prior to Ag, 2 h after PCA induction) was “a reduction in edema”. For the same compound, the “IL-10 protein in total skin homogenates” value ([1]; NKA pretreated mice) was “did not increase”, the “myeloperoxidase activity in skin homogenates, 24 h” value ([1]; NKA pretreatment) was “reduced myeloperoxidase activity” and the “neutrophil influx in histological sections, late phase (24 h)” value ([1]; NKA pretreatment) was “reduced neutrophil influx”. The “IL-13 in the skin” value ([1]; absence of MC-derived IL-10) was “increased”, the “TNF in the skin” value ([1]; absence of MC-derived IL-10) was “increased” and the “PCA, including degranulation-associated edema” value ([1]; overall statement) was “fully inhibited”. For the same compound, the IL-13 release [2, 9] was “inhibited”, the TNF release [2, 9] was “inhibited” and the “effects of NKA on IL-13 and TNF release” value ([2]; without PMC-derived IL-10 (Mcpt5Cre^+×IL10^fl/fl)) was “reversed”. For the same compound, the “avidin^+ granules and LAMP-1 on the cell surface” value ([3]; 30 min after activation, with or without NKA) was “equivalent amounts”, the “percentage of avidin^+ and LAMP-1V PMCs” value ([4]; 30 min after activation, compared to control) was “reduced the percentage” and the “early IL-10 in supernatants” value ([5]; 60 min after activation with NKA) was “significantly more IL-10”. For the same compound, the “degradation of early IL-10 / pulsed rIL-10 by released proteases” value ([5]; cell-free supernatants pulsed with rIL-10 for 30 min) was “disrupted”.
